The values that follow come from ChEMBL document CHEMBL1157539, “Thousands of chemical starting points for antimalarial lead identification” (Nature, 2010).

The assay deals with Plasmodium falciparum. Briefly: GSK_TCMDC: Inhibition of Plasmodium falciparum 3D7 in whole erythrocytes, using parasite LDH activity as an index of growth. Format: functional, organism-based. The settings on record: Plasmodium falciparum, 3D7.
`COc1ccc(NC(=O)/C=C/c2ccc(Oc3ccccc3Cl)c([N+](=O)[O-])c2)cc1OCCN(C(C)C)C(C)C` yielded an XC50 of 883 nM. As for `CCCNCc1ccc(-c2ccc(CN(CCOC)C(=O)CC3CCCC3=O)cc2)nc1` (centres undefined), the figure is 1240 nM; as for `O=C(Nc1cccc(-c2nn3ccccc3c2-c2ccnc(Nc3ccc(Cc4ccncc4)cc3)n2)c1)c1c(F)cccc1F`, 296 nM; as for `COc1ccc(CN2CCCN(Cc3cccc(C(=O)Nc4ccc(C)c(F)c4)c3)CC2)cc1`, 1310 nM. With `Cc1cnccc1/C=C/c1cccc(OCCN2CCc3ccc(S(C)(=O)=O)cc3CC2)c1`, the XC50 was determined as 267 nM. As for `COc1cc(Cc2cnc(N)nc2N)cc(OCCCCc2ccc([N+](=O)[O-])cc2)c1OC`, the figure is 989 nM; as for `COc1ccc(O)c(C(=O)c2cc(C(=O)NCCc3ccccc3)c(=O)n(CCc3ccccc3)c2)c1`, 1010 nM; as for `c1ccc(-c2ccc3c(Nc4ccc5[nH]ncc5c4)ccnc3c2)nc1`, 822 nM.

As for `CC(C)N1CCN(C(CN2CCN(CCCOc3ccccc3-c3ccccc3)CC2)c2ccc(F)cc2)CC1` (centres undefined), the XC50 was 789 nM. In turn, `NCC1CCCN1Cc1cccc(-c2ccc(-c3nc4ccccc4[nH]3)s2)c1` (centres undefined) had an XC50 of 1040 nM.

For `c1ccc(CCNc2ncnc3c2[nH]c2ccccc23)cc1`, the XC50 came out at 601 nM. On to `COc1ccc(CCN2CCC(NCc3cccc(N(C)C)c3)CC2)cc1`, for which the XC50 came out at 1320 nM. `CCC1(C)CC(CCNCc2ccccc2O)(c2ccc(F)cc2)CCO1` (centres undefined) registered an XC50 of 880 nM.

`COc1cc2nc(NCC3CCCO3)n3nc(-c4ccccc4)nc3c2cc1OC` (centres undefined) showed an XC50 of 211 nM. In turn, `Cc1noc(C)c1-c1ccc2c(Nc3ccc(Cl)cc3)c(C(N)=O)cnc2c1` displayed an XC50 of 826 nM. `O=C(N[C@@H](CC1CCCCC1)C(=O)NC1CCCc2ccccc21)c1ccc(O)c(-c2ccc(Cl)c(Cl)c2)c1` (some centres undefined) registered an XC50 of 195 nM. As to `N#Cc1ccccc1C1CCN(C2CCC(Nc3cc(-c4cccnc4)ccn3)CC2)CC1` (centres undefined), the XC50 was 958 nM. Under `CC(C)CCNCc1c(O)ccc2ccccc12` stands 1670 nM; under `COc1cc2ncnc(Nc3ccc(OCc4ccccc4Br)c(OC)c3)c2cc1OC`, 427 nM; under `CS(=O)(=O)Nc1cccc(-c2cnc3[nH]cc(-c4cc(N)cc(C(=O)O)c4)c3c2)c1`, 1080 nM.

In turn, `C(=Cc1nc2ccccc2s1)c1ccc2c(c1)OCCO2` displayed an XC50 of 393 nM. Take `CCC1(CC)CN(c2ccccc2)c2ccc(O)cc2S(=O)(=O)C1CC(C)C` (centres undefined): the XC50 came to 402 nM. `NC1=Nc2ccc(Cl)cc2C1(O)c1ccccc1` (centres undefined) yielded an XC50 of 876 nM. As for `CCc1cccc2c(C#N)cn(CC(=O)Nc3ccc(OC)cc3)c12`, the figure is 772 nM; as for `O=c1cc(NCCCNCc2ccc(Cl)c(Cl)c2)[nH]c2ccc(C(F)(F)F)cc12`, 524 nM; as for `CN(C)c1ccc2nc(N)nc(N)c2c1Cl`, 475 nM. Under `CN(C)CCNCc1cccc(-c2ccc3c(Nc4ccc(F)cc4Cl)ccnc3c2)c1` stands 809 nM; under `Cc1cccnc1CNc1nccc2c(C)c(C)[nH]c12`, 849 nM. `Cc1nnsc1C(=O)Nc1ccc(-c2cccc(-c3nc4cccc(C)c4[nH]3)c2)cc1` registered an XC50 of 630 nM.

On to `Cc1nc(C)c(-c2ccc(C(F)(F)F)cc2)c(O)c1Br`, for which the XC50 came out at 142 nM. Under `Cc1ccccc1CCNC(=O)c1cnc(N2CCN(c3ccncc3)CC2)c(Cl)c1` stands 1060 nM; under `COc1ccc(-c2cccc(NC(=O)c3cccc(Cl)c3)c2)cc1CN1CCNCC1`, 803 nM; under `COc1ccc2c(OC)ccc(CNCCCCCCNCc3ccc(OC)c4ccc(OC)cc34)c2c1`, 399 nM.

Compound `CCCOc1ccc(CCCON2C(N)=NC(N)=NC2(C)C)cc1` showed an XC50 of 3.2 nM. Turning to `COc1ccc(CCNCCCCCCNCCc2cccc([N+](=O)[O-])c2)cc1OC`, the XC50 stood at 997 nM. `O=S(=O)(Nc1ccc(CCN2CCC(N3CCCCC3)CC2)cc1)c1cccc2cccnc12` yielded an XC50 of 1060 nM. The compound `CN(C)c1ccc(/N=C2/N/C(=N/c3ccc(N(C)C)cc3)c3ccccc32)cc1` came in with an XC50 of 848 nM.

In turn, `NC(=O)c1cccc(Nc2nccc(Nc3ccc(Oc4cccc(Cl)c4)c(Cl)c3)n2)c1` showed an XC50 of 1280 nM.

Compound `COC(=O)/C=C/c1ccc(CC(C)NCC(O)c2cccc(Br)c2)cc1` (centres undefined) showed an XC50 of 725 nM.

In turn, `Nc1ccc2nc(C=Cc3ccccc3)[nH]c2c1` registered an XC50 of 749 nM.

`CNCCNCc1cccc(-c2ccc(-c3nc4cccc(C)c4[nH]3)cc2)c1` displayed an XC50 of 798 nM.

Consider `Cc1c(N=O)cc(C(C)(C)C)c(O)c1C(=O)Nc1ccc([N+](=O)[O-])cc1Cl`, for which the XC50 was determined as 775 nM. In turn, `O=C(NCC1CN(Cc2ccc(N3CCCC3)o2)CCCO1)c1ccc2c(c1)OCO2` (centres undefined) registered an XC50 of 839 nM. As for `CN1CCN(CCCN(Cc2ccc(-c3cccc(CNCc4ccc5c(c4)OCO5)c3)cc2)C(=O)NCCc2ccccc2)CC1`, the figure is 845 nM; as for `O=C1Nc2cccc3c2C1(CCCCN1CCC(c2c[nH]c4cc(C(F)(F)F)ccc24)CC1)CCC3` (centres undefined), 715 nM; as for `O=C(NC1CC1)c1ccc(N2CCCC(COc3ccccc3F)C2)nc1` (centres undefined), 897 nM. In the case of `CC(CON1C(N)=NC(N)=NC1(C)C)Cc1ccc(Cl)cc1Cl` (centres undefined), the XC50 is 3.2 nM. In turn, `Cn1nc(-c2ccc(NC(=O)Nc3cc(C(F)(F)F)ccc3F)cc2)c2cnc(NCCCCN3CCCC3)nc21` returned an XC50 of 531 nM.

The compound `Cc1ccc(CN(Cc2ccc(C(=O)N(C)C)cc2)Cc2ccc3c(c2)OCCO3)cc1C` came in with an XC50 of 804 nM. Under `CN(C)CCNCc1cccc(-c2ccc3c(Nc4ccc(Oc5ccccc5)cc4)ccnc3c2)c1` stands 441 nM; under `O=C(Nc1cccc(CN2CCN(C(=O)c3cccs3)CC2)c1)c1cccs1`, 782 nM.

Regarding `COc1ccc(N2CCN(CCCCNC(=O)c3ccc(NC(=O)c4ccc(Cl)c(Cl)c4)cc3)CC2)c(OC)c1`, the XC50 was 212 nM.

Take `O=C(CNC1=NCCN1)Nc1ccc(NC(=O)Nc2ccc(NC(=O)CNC3=NCCN3)cc2)cc1`: the XC50 was 781 nM. Compound `Clc1cccc(-c2nc(Nc3ccnc(-c4ccc(CN5CCOCC5)cc4)c3)c3ccccc3n2)c1` came in with an XC50 of 710 nM. On to `CC(=O)Nc1ccc(CN2CCC(CNC(=O)c3cc(-c4cccc(Cl)c4)cs3)C2)cc1` (centres undefined), for which the XC50 was found to be 1120 nM. Compound `COC(=O)c1ccc(CC(C)NCC(O)c2cccc(OC(F)(F)F)c2)cc1` (centres undefined) came in with an XC50 of 863 nM. The compound `N#Cc1cccc(C(=O)Nc2ccc(-c3ccc(CN4CCCC4)cc3)cc2)c1` registered an XC50 of 1150 nM. In turn, `Nc1cc(-c2ccc(-c3cccs3)s2)nc2ccccc12` had an XC50 of 598 nM. Under `FC(F)(F)c1ccc2[nH]c(-c3ccc(-c4ccc(CNCCN5CCNCC5)cc4)s3)nc2c1` stands 910 nM. Under `COc1ccc(-c2c(-c3ccc(OCc4ccccc4)cc3O)n[nH]c2C(F)(F)F)cc1` stands 1170 nM.

Take `Cc1cc(NCCCCCCNc2cc(C)nc3c(C)cccc23)c2cccc(C)c2n1`: the XC50 was found to be 406 nM. As for `O=C(Nc1cc(Cl)cc(Cl)c1)c1cc(Cl)c(=O)n(Cc2cccc(Cl)c2)c1`, the XC50 is 752 nM. The compound `COc1cc2nc(N(C)C)nc(Nc3ccc(OCc4ccccc4)cc3)c2cc1OC` showed an XC50 of 71.8 nM. The compound `Oc1ccc(CCNc2nc(NCc3ccccc3-c3ccc(C(F)(F)F)cc3)nc(NC3CCNCC3)n2)cc1` yielded an XC50 of 924 nM. As for `COc1ccc2ncc(F)c(CCN3CCC(CNC(=O)C(=O)c4c[nH]c5ccccc45)CC3)c2n1`, the figure is 389 nM; as for `CON(C)C(=O)[C@@H](CCCCNC(=O)OCc1ccccc1)NC(=O)OC(C)(C)C`, 195 nM; as for `CCCCOC(=O)c1ccc(Nc2cc(C)nc3ccc(OC)cc23)cc1`, 640 nM.

With `CN(C)CCOc1ccc(N2CCN(CCCCNC(=O)c3ccc(/C=C/c4cc(Cl)cc(Cl)c4)cc3)CC2)cc1`, the XC50 is 1000 nM. On to `O=C(Nc1nc(-c2ccccn2)cs1)c1ccc(Br)s1`, for which the XC50 worked out at 1060 nM. As for `CCOc1cc2ncnc(Nc3ccc(OCc4c(Cl)cccc4Cl)c(OC)c3)c2cc1OCC`, the figure is 1050 nM; as for `O=C(NCc1cccc(OC(F)(F)F)c1)c1cnc2c(c1)nc(-c1c[nH]c(-c3ccccc3)n1)n2CCc1c[nH]cn1`, 683 nM.

As to `COc1cc([N+](=O)[O-])ccc1NC(=O)Nc1ccc(OC(F)(F)F)cc1`, the XC50 came out at 1030 nM. Under `Cc1nc(N)nc(N)c1OCCCOc1cccc(Cl)c1Cl` stands 2.56 nM. With `Cc1ccc2nc(Cl)c3cc(C(=O)NCCCN4CCCC4)sc3c2c1`, the XC50 stood at 1140 nM. As for `O=C1CN(C(=O)CCC2CCCC2)C(c2ccc(F)cc2)c2cc(F)ccc2N1` (centres undefined), the figure is 168 nM; as for `CCNc1cc(C(=O)N[C@@H](Cc2ccccc2)[C@H](O)CNC2(CCC(C)C)CC2)cc(N2CCCCS2(=O)=O)c1`, 1080 nM.

Regarding `COc1cc(NCCCNCc2cn(S(=O)(=O)c3ccccc3)c3ccccc23)nc2ccccc12`, the XC50 amounted to 386 nM. For the compound `Cc1ccc(Nc2ccnc(Nc3ccc(F)c(Cl)c3)n2)cc1O`, the XC50 is 733 nM.

As for `CCCN(CCC)C(=S)N/N=C1/C(=O)Nc2ccccc21`, the XC50 stood at 815 nM. `CCCC1N=C(N)N=C(N)N1c1ccc(C)cc1` (centres undefined) registered an XC50 of 95.2 nM. Regarding `O=C1OC2(CN1CC1CCN(Cc3ccc(O)c(Cl)c3)CC1)c1ccccc1-c1ccccc12`, the XC50 is 756 nM. As for `O=C(C=Cc1ccc(Cl)c(Cl)c1)NCCCCCN1CCC(CCNS(=O)(=O)c2ccc(F)cc2)CC1`, the XC50 is 1090 nM. `Cc1cc(N[C@@H](CC(C)C)C(=O)Nc2ccccc2)nc(NCCc2ccc(F)cc2)n1`: the XC50 amounted to 1090 nM. Compound `CCN(CC)C(=O)C(=O)c1c[nH]c2ccc(Cl)cc12` gave an XC50 of 81.1 nM. `Cc1cc(O)cc2c(C3CCN(CC4CCN(C(=O)/C=C/c5ccc(Cl)c(Cl)c5)CC4)CC3)c[nH]c12`: the XC50 is 1090 nM. In the case of `O=C(NCc1ccc(C(=O)NC2CCCCC2)cc1)c1ccc(O)c(-c2ccc(Cl)c(Cl)c2)c1`, the XC50 came to 875 nM. `CC(=O)Nc1ccc(OCCN(Cc2ccccc2OC(F)(F)F)c2ccc(C(F)(F)F)c(C#N)c2)c(Cl)c1`: the XC50 stood at 456 nM.

As to `Cc1[nH]c(C)c([N+](=O)[O-])c(=O)c1-c1ccc(Oc2ccccc2)cc1`, the XC50 was 266 nM. `CC[C@H]1CN2CC[C@H]1C[C@H]2[C@H](O)c1ccnc2ccc(OC)cc12` displayed an XC50 of 154 nM.
